# Measured values reported in PubChem BioAssay AID256 (DTP/NCI, 2004).
# “And” between values parts separate entries of the source, which are not always exact repeats. Equal values may be shown once. Inconclusive results and toxic doses are left out.
# System: CD2F1 mice, L1210 leukemia ip, survival T/C
# Assay: NCI In Vivo Anticancer Drug Screen. Data for tumor model L1210 Leukemia (intraperitoneal) in CD2F1 (CDF1) mice
# Settings: higher = longer survival
# How it was run: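 Vehicle-treated tumor-bearing mice served as controls (C) for compound-treated mice (T). Reported figure is T divided by C.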
# [1] = endpoint: mean survival time, dose: 50.0 mg/kg/injection, schedule: Q01DX009 (ip), vehicle: saline
# [2] = endpoint: mean survival time, dose: 100.0 mg/kg/injection, schedule: Q01DX009 (ip), vehicle: saline
# [3] = endpoint: mean survival time, dose: 100.0 mg/kg/injection, schedule: Q04DX003 (ip), vehicle: saline
# [4] = endpoint: mean survival time, dose: 200.0 mg/kg/injection, schedule: Q01DX009 (ip), vehicle: saline
# [5] = endpoint: mean survival time, dose: 200.0 mg/kg/injection, schedule: Q04DX003 (ip), vehicle: saline
# [6] = endpoint: mean survival time, dose: 100.0 mg/kg/injection, schedule: Q01DX009 (ip), vehicle: saline with Tween-80
# [7] = endpoint: mean survival time, dose: 200.0 mg/kg/injection, schedule: Q01DX009 (ip), vehicle: saline with Tween-80
# [8] = endpoint: mean survival time, dose: 100.0 mg/kg/injection, schedule: Q04DX002 (ip), vehicle: saline with Tween-80
# [9] = endpoint: mean survival time, dose: 200.0 mg/kg/injection, schedule: Q04DX002 (ip), vehicle: saline with Tween-80
# [10] = endpoint: mean survival time, dose: 400.0 mg/kg/injection, schedule: Q04DX002 (ip), vehicle: saline with Tween-80
# [11] = endpoint: mean survival time, dose: 400.0 mg/kg/injection, schedule: Q01DX009 (ip), vehicle: saline with Tween-80
# [12] = endpoint: mean survival time, dose: 100.0 mg/kg/injection, schedule: Q04DX003 (ip), vehicle: saline with Tween-80
# [13] = endpoint: mean survival time, dose: 200.0 mg/kg/injection, schedule: Q04DX003 (ip), vehicle: saline with Tween-80
# [14] = endpoint: mean survival time, dose: 400.0 mg/kg/injection, schedule: Q04DX003 (ip), vehicle: saline with Tween-80
# [15] = endpoint: mean survival time, dose: 100.0 mg/kg/injection, schedule: Q01DX009 (ip), vehicle: other
# [16] = endpoint: mean survival time, dose: 200.0 mg/kg/injection, schedule: Q01DX009 (ip), vehicle: other
# [17] = endpoint: mean survival time, dose: 400.0 mg/kg/injection, schedule: Q01DX009 (ip), vehicle: other
# [18] = endpoint: mean survival time, dose: 50.0 mg/kg/injection, schedule: Q01DX009 (ip), vehicle: saline with Tween-80
# [19] = endpoint: mean survival time, dose: 400.0 mg/kg/injection, schedule: Q04DX003 (ip), vehicle: saline
structure (smiles),measurement,setting,value
CN(C)CCCNCC#CCNCCCN(C)C,T/C,[1],100 % of control
same,T/C,[2],98 % of control
same,T/C,[3],101 % of control
same,T/C,[4],96 % of control
same,T/C,[5],95 % of control
CCN(CC)C(=S)SC/C=C\CC(Cl)(Cl)Cl,T/C,"endpoint: mean survival time, dose: 75.0 mg/kg/injection, schedule: Q04DX003 (ip), vehicle: saline",97 % of control
same,T/C,"endpoint: mean survival time, dose: 150.0 mg/kg/injection, schedule: Q04DX003 (ip), vehicle: saline",101 % of control
same,T/C,"endpoint: mean survival time, dose: 300.0 mg/kg/injection, schedule: Q04DX003 (ip), vehicle: saline",109 % of control
O=C(NNC(=O)c1c(F)c(F)c(F)c(F)c1F)c1c(F)c(F)c(F)c(F)c1F,T/C,[6],97 % of control
same,T/C,[7],97 % of control
CC12C(=O)C(C)(C(c3ccccc3)=C1c1ccccc1)C([N+](=O)[O-])C2c1ccccc1 (stereo not given),T/C,[8],94 % of control
same,T/C,[9],97 % of control
same,T/C,[10],94 % of control
NC(=O)c1ncn(C2OC(CO)C(O)C2O)c1C(N)=O (stereo not given),T/C,"endpoint: mean survival time, dose: 12.5 mg/kg/injection, schedule: Q01DX005 (ip), vehicle: water",102 % of control
same,T/C,"endpoint: mean survival time, dose: 25.0 mg/kg/injection, schedule: Q01DX005 (ip), vehicle: water",112 % of control
same,T/C,"endpoint: mean survival time, dose: 50.0 mg/kg/injection, schedule: Q01DX005 (ip), vehicle: water",107 % of control
same,T/C,"endpoint: mean survival time, dose: 100.0 mg/kg/injection, schedule: Q01DX005 (ip), vehicle: water",104 % of control
same,T/C,"endpoint: mean survival time, dose: 200.0 mg/kg/injection, schedule: Q01DX005 (ip), vehicle: water",112 % of control
CCOC(=O)C(=CNc1ccc(OC)cc1[N+](=O)[O-])C(=O)OCC,T/C,"endpoint: mean survival time, dose: 100.0 mg/kg/injection, schedule: Q01DX005 (ip), vehicle: saline with Tween-80",103 % of control
same,T/C,[6],93 % of control
same,T/C,"endpoint: mean survival time, dose: 200.0 mg/kg/injection, schedule: Q01DX005 (ip), vehicle: saline with Tween-80",97 % of control
same,T/C,[7],89 % of control
same,T/C,"endpoint: mean survival time, dose: 400.0 mg/kg/injection, schedule: Q01DX005 (ip), vehicle: saline with Tween-80",91 % of control
same,T/C,[11],89 % of control
CCCCCCCCCCCCCCCCOc1ccc(OCCCCCCCCC)cc1,T/C,"endpoint: mean survival time, dose: 400.0 mg/kg/injection, schedule: Q01DX001 (ip), vehicle: saline with Tween-80",86 % of control
CCOc1cc([N+](=O)[O-])c(OCC)cc1Cl,T/C,[6],90 % of control
same,T/C,[12],92 % of control
same,T/C,[7],96 % of control
same,T/C,[13],89 % of control
same,T/C,[11],98 % of control
same,T/C,[14],93 % of control
CC1(C)COC(CC2(O)CCCCCC2)=N1,T/C,[8],101 % of control
same,T/C,[12],95 % of control
same,T/C,[9],96 % of control
same,T/C,[13],88 % of control
same,T/C,[10],101 % of control
same,T/C,[14],93 % of control
COc1cc(/C=C2/CCCCC2=O)ccc1O,T/C,[15],104 % of control
same,T/C,[16],98 % of control
same,T/C,[17],98 % of control
COc1cc(N=Nc2ccccc2C(=O)O)ccc1N(CCCl)CCCl,T/C,"endpoint: mean survival time, dose: 6.25 mg/kg/injection, schedule: Q01DX009 (ip), vehicle: Klucel (hydroxypropylcellulose) (HPC)",99 % of control
same,T/C,"endpoint: mean survival time, dose: 12.5 mg/kg/injection, schedule: Q01DX009 (ip), vehicle: Klucel (hydroxypropylcellulose) (HPC)",108 % of control
same,T/C,"endpoint: mean survival time, dose: 25.0 mg/kg/injection, schedule: Q01DX009 (ip), vehicle: Klucel (hydroxypropylcellulose) (HPC)",123 % of control
CCOC(=O)CC1CC(CN)(C(=O)OCC)CO1 (stereo not given),T/C,[12],95 % of control
same,T/C,[13],95 % of control
same,T/C,[14],100 % of control
CCCCCCCCCCCCCCCC(=O)N(CCCN(CC)CC)C(C)CCCN(CC)CC (stereo not given),T/C,"endpoint: mean survival time, dose: 1.56 mg/kg/injection, schedule: Q01DX009 (ip), vehicle: water",102 % of control
same,T/C,"endpoint: mean survival time, dose: 3.13 mg/kg/injection, schedule: Q01DX009 (ip), vehicle: water",100 % of control
same,T/C,"endpoint: mean survival time, dose: 6.25 mg/kg/injection, schedule: Q01DX009 (ip), vehicle: water",96 % of control
Brc1ccc(-c2ccc(Br)cc2)cc1,T/C,"endpoint: mean survival time, dose: 100.0 mg/kg/injection, schedule: Q04DX003 (ip), vehicle: Klucel (hydroxypropylcellulose) (HPC)",105 % of control
same,T/C,"endpoint: mean survival time, dose: 200.0 mg/kg/injection, schedule: Q04DX003 (ip), vehicle: Klucel (hydroxypropylcellulose) (HPC)",95 % of control
same,T/C,"endpoint: mean survival time, dose: 400.0 mg/kg/injection, schedule: Q04DX003 (ip), vehicle: Klucel (hydroxypropylcellulose) (HPC)",95 % of control
Nc1ccn(C2CC(CO)C(O)C2O)c(=O)n1 (stereo not given),T/C,"endpoint: mean survival time, dose: 150.0 mg/kg/injection, schedule: Q01DX009 (ip), vehicle: saline",204 % of control
ClC1C2c3ccccc3C(C1Cl)[n+]1ccccc12 (stereo not given),T/C,"endpoint: mean survival time, dose: 12.5 mg/kg/injection, schedule: Q04DX003 (ip), vehicle: Klucel (hydroxypropylcellulose) (HPC)",93 % of control
same,T/C,"endpoint: mean survival time, dose: 25.0 mg/kg/injection, schedule: Q04DX003 (ip), vehicle: Klucel (hydroxypropylcellulose) (HPC)",98 % of control
CC[C@@]1(OC(=O)CN2CCNCC2)C(=O)OCc2c1cc1n(c2=O)Cc2cc3ccccc3nc2-1,T/C,"endpoint: median survival time, dose: 6.25 mg/kg/injection, schedule: Q04DX002 (ip), vehicle: water",106 % of control
same,T/C,"endpoint: median survival time, dose: 12.5 mg/kg/injection, schedule: Q04DX002 (ip), vehicle: water",116 % of control
same,T/C,"endpoint: median survival time, dose: 50.0 mg/kg/injection, schedule: Q04DX002 (ip), vehicle: water",153 % of control and 170 % of control
same,T/C,"endpoint: median survival time, dose: 100.0 mg/kg/injection, schedule: Q04DX002 (ip), vehicle: water",268 % of control
O=C1OC2CCCCC2c2ccccc21 (stereo not given),T/C,[12],98 % of control
same,T/C,[13],96 % of control
same,T/C,[14],98 % of control
O=S(=O)(/N=C/c1ccccc1)c1ccc(Cl)cc1,T/C,[18],100 % of control
same,T/C,[6],107 % of control
CCCCC(CC)CNCC(CC)CCCC (stereo not given),T/C,"endpoint: mean survival time, dose: 50.0 mg/kg/injection, schedule: Q04DX003 (ip), vehicle: saline with Tween-80",93 % of control
same,T/C,[12],91 % of control
C=CCOCCC#N,T/C,[6],95 % of control
CCCCC(CC)C(O)CC(O)CC (stereo not given),T/C,[12],92 % of control
same,T/C,[13],91 % of control
same,T/C,[14],91 % of control
CCC(/C=C1\Oc2ccc(-c3ccccc3)cc2N1CC)=C\c1oc2ccc(-c3ccccc3)cc2[n+]1CC,T/C,"endpoint: mean survival time, dose: 4.4 mg/kg/injection, schedule: Q01DX009 (ip), vehicle: other",117 % of control
CC1(C)N=C(N)N=C(N)N1c1ccc(OCc2ccc(C(=O)Nc3cccc(S(=O)(=O)F)c3)cc2)c(Cl)c1,T/C,[5],104 % of control
O=C(O)/C(Br)=C/c1ccccc1,T/C,[18],100 % of control
same,T/C,[6],90 % of control
same,T/C,[12],103 % of control
same,T/C,[7],90 % of control
same,T/C,[13],110 % of control
same,T/C,[14],110 % of control
CNC/C(C)=C/Br,T/C,"endpoint: mean survival time, dose: 50.0 mg/kg/injection, schedule: Q01DX009 (ip), vehicle: acetone",101 % of control
same,T/C,"endpoint: mean survival time, dose: 100.0 mg/kg/injection, schedule: Q04DX003 (ip), vehicle: acetone",101 % of control
same,T/C,"endpoint: mean survival time, dose: 200.0 mg/kg/injection, schedule: Q04DX003 (ip), vehicle: acetone",97 % of control
O=C(Cc1ccccn1)c1ccccc1,T/C,[15],101 % of control
same,T/C,[16],96 % of control
same,T/C,[17],96 % of control
Cc1ccc(C(CS(=O)(=O)c2ccc(C)cc2)c2ccccc2)cc1 (stereo not given),T/C,[3],93 % of control
same,T/C,[5],93 % of control
same,T/C,[19],98 % of control
Cn1cnc2cc(N)ccc21,T/C,[1],95 % of control
same,T/C,[2],98 % of control
same,T/C,[4],98 % of control
CCC(=O)O[C@H]1CC[C@H]2[C@@H]3C[C@H](F)C4=CC(=O)CC[C@]4(C)[C@H]3CC[C@]12C,T/C,[3],102 % of control
same,T/C,[5],95 % of control
same,T/C,[19],95 % of control
N#CC1=C(N)CCC1,T/C,"endpoint: mean survival time, dose: 6.25 mg/kg/injection, schedule: Q01DX009 (ip), vehicle: saline with Tween-80",97 % of control
same,T/C,"endpoint: mean survival time, dose: 12.5 mg/kg/injection, schedule: Q01DX009 (ip), vehicle: saline with Tween-80",95 % of control
same,T/C,"endpoint: mean survival time, dose: 25.0 mg/kg/injection, schedule: Q01DX009 (ip), vehicle: saline with Tween-80",93 % of control
same,T/C,[12],102 % of control
same,T/C,[14],97 % of control
CCCCCCCCCCCCCCNCCC(=O)O,T/C,"endpoint: mean survival time, dose: 75.0 mg/kg/injection, schedule: Q01DX001 (ip), vehicle: saline",98 % of control
same,T/C,"endpoint: mean survival time, dose: 150.0 mg/kg/injection, schedule: Q01DX001 (ip), vehicle: saline",106 % of control
